Source: US20190125734A1, “COMPOSITION FOR TREATING OR PREVENTING ATOPIC DERMATITIS” (NANOEGG Research Laboratories, Inc., priority 2016, published 2019)
“Also recorded” adds a separate entry of the source.

Columns and labels:
[1] = tested on: mice with atopic dermatitis outbreak (NC/Nga, mite antigen Biostir AD); experiment: Atopic dermatitis score with simultaneous mite antigen induction and test formulation application, Example 5; type: in vivo, mouse; settings: topical 5 times a week for 3 weeks, 12 mM week 1, 24 mM week 2 and thereafter (decamethonium bromide 12 mM, twice a week in last week), induction twice a week
Experimental: (§1) Induction with mite antigens (twice a week) and application of a test formulation (5 times a week) were simultaneously performed for 3 weeks to analyze the effect of suppressing induction of atopic dermatitis. A test formulation was used at 12 mM in week 1, and at 24 mM in week 2 and thereafter. […] A non treatment group (no induction, no application of test formulation) and solvent applied group (with induction, application of purified water) were prepared as controls.
(1) Antagonist and agonist: hexamethonium bromide, suxamethonium chloride (Maruishi Pharmaceutical), and decamethonium bromide (Tokyo Chemical Industry) were used to compare an antagonist and agonist of a nicotinic acetylcholine receptor. […] (3) Number of tertiary amino groups: Hexamethonium bromide has two tertiary amino groups within the molecule. This was compared to hexyltrimethylammonium bromide (Wako Pure Chemical; hereinafter, referred to as Hexyl-TAB) having one tertiary amino group within the molecule and an alkyl group with 6 carbons. (4) Carbon chain length: Hexamethonium bromide was compared with decamethonium bromide (number of carbons 10) which has a carbon chain length that is longer than hexamethonium bromide (number of carbons 6), and compared with tetramethylammonium bromide (Wako Pure Chemical; number of carbons: 1; hereinafter, referred to as TAB), hexyltrimethylammonium bromide (number of carbons: 6; hereinafter, referred to as Hexyl-TAB), and cetyltrimethylammonium bromide (Wako Pure Chemical; number of carbons: 16; hereinafter, referred to as Cetyl-TAB), which have one tertiary amino group within the molecule and a different carbon chain length in the alkyl group.

[2] = Toxicity observed during application, Example 5; type: in vivo, mouse; settings: topical application to NC/Nga mice, 12 mM week 1
Experimental: as §1, with “Mice (NC/Nga, 10 week old) were applied with a mite antigen (Biostir AD) twice a week for 4 weeks to prepare mice with atopic dermatitis outbreak as in Example 1. Induction” for “Induction”, “controls. Scoring was performed in the same manner as Example 1.” for “controls.”

[3] = tested on: atopic dermatitis model mice (NC/Nga, mite antigen Biostir AD); experiment: Evaluation of drug efficacy after inducing dermatitis (AD score, pictures of the back), Example 1; type: in vivo, mouse; settings: female NC/Nga mice, topical 12 mM, days 3 and 7
Experimental: 10 week old NC/Nga mice (Charles River Laboratories Japan) were used as atopic dermatitis model animals. A mite (Dermatophagoides farina) antigen, i.e., Biostir AD (Wako Pure Chemical), was used to induce dermatitis. Model mice were prepared by the following procedure.
1. The back of mice was shaved. A hair removal cream was used only for the first time. 2. To destroy the skin barrier, 150 μL of 4% SDS was applied and dried for 2 to 3 hours (this step was omitted for the first time). 3. To stimulate immunity, 100 mg of Biostir AD was applied to the back and the left and right auricles of the mice. 4. These steps were performed twice a week.
Scoring was performed according to the method described in the package insert of Biostir AD. Four endpoints were each evaluated as 0 to 3 points. The total score for the endpoints was used as the AD score. The following Table 1 summarizes the scores for each endpoint.
Acridinium bromide (Wako Pure Chemical) and scopolamine hydrobromide trihydrate (Tokyo Chemical Industry) were used as an inhibitor of a muscarinic acetylcholine receptor. Hexamethonium bromide (sigma-aldrich) and dextromethorphan hydrobromide monohydrate (Wako Pure Chemical) were used as an inhibitor of a nicotinic acetylcholine receptor. Dimethyl sulfoxide (DMSO, Wako Pure Chemical), saline (Otsuka Pharmaceutical), and purified water were used as solvents. […]

[4] = tested on: atopic dermatitis model mice (NC/Nga, mite antigen Biostir AD); experiment: Drug efficacy with dermatitis induction in parallel (AD score, pictures of the back), Example 3; type: in vivo, mouse; settings: male NC/Nga mice, topical 12 mM, days 3, 7, 11
Experimental: Atopic dermatitis model mice were prepared and scored in the same manner as Example 1. The same test formulations as those in Example 1 were used.
Male NC/Nga mice (Charles River Laboratories Japan) induced to have atopic dermatitis were used. A test formulation was applied to the back once a day, 5 days a week (Monday to Friday), for a total of 10 times. 100 μL of the test formulation was applied to the back, and 25 μL was applied to each of the left and right auricles. The back was shaved prior to administration on Monday and Thursday to evaluate dermatitis scores. Atopic dermatitis was then induced only on Mondays every week to maintain dermatitis. Mice were euthanized after 11 days from the initial administration, and then the skin tissue was sampled.

[5] = tested on: skin of atopic dermatitis patients; experiment: Replica method for goose bump-like skin symptoms, Example 6; type: in vivo, human; settings: 12 mM applied to back part of the neck of atopic dermatitis patients; 5 to 10 minutes after application vs before
Experimental: Hexamethonium (12 mM) was applied to (back part of) the neck of atopic dermatitis patients to obtain replica images of skin before application and after 5 to 10 minutes from application. The replica images were collected by applying silicon resin (SILFLO) so as to cover the skin with outbreak of atopic dermatitis and peeling of the cured silicon from the skin after 5 minutes. Light was irradiated onto the collected replicas from one direction to compare and examine, and take pictures of, the unevenness of the skin surface.

[6] = tested on: atopic dermatitis model mice (NC/Nga, mite antigen Biostir AD); experiment: Therapeutic effect from oral administration, dermatitis scores, Example 8; type: in vivo, mouse; settings: 150 μL of 60 mM once a day, 5 times a week, total 10 times, day 10
Experimental: 10 week old NC/Nga mice (Charles River Laboratories Japan) were used as atopic dermatitis model animals. A mite antigen (Biostir AD, Wako Pure Chemical) was used to induce dermatitis. Model mice were prepared and scored according to the method described in the package insert of Biostir AD (same as Example 1).
As an inhibitor of a nicotinic acetylcholine receptor, hexamethonium bromide (hereinafter, hexamethonium; sigma-aldrich) was used. The inhibitor was dissolved in purified water and prepared to have a final concentration of 60 mM. Purified water (DW) was used as a negative control.
150 μL of a test formulation was orally administered to atopic dermatitis induced mice once a day, 5 times a week, for a total of 10 times. Dermatitis scores were evaluated after 0 and 10 days from administration. Mean change from day 0 was compared. Atopic dermatitis was induced with mite antigens only on Mondays every week to maintain the symptom.

mast cells = experiment: Activity and migration of mast cells (toluidine blue stain of back skin), Example 2; type: in vivo, mouse; settings: severe area; saline group about 40%
Source text: Solifenacin succinate (Tokyo Chemical Industry), acridinium bromide (Wako Pure Chemical) and scopolamine hydrobromide trihydrate (Tokyo Chemical Industry) were used as an inhibitor of a muscarinic acetylcholine receptor. Tubocurarine chloride pentahydrate (Tokyo Chemical Industry), gallamintriethiodide (sigma-aldrich), hexamethonium bromide (sigma-aldrich), dextromethorphan hydrobromide monohydrate (Wako Pure Chemical), and α-bungarotoxin (alomone labs) were used as an inhibitor of a nicotinic acetylcholine receptor. Dimethyl sulfoxide (DMSO, Wako Pure Chemical) saline (Otsuka Pharmaceutical), and purified water were used as solvents.
The back skin of sampled atopic dermatitis model mice was immobilized with neutral formalin and embedded in paraffin. A 4 μm thick tissue segment was prepared therefrom, and mast cells were stained with toluidine blue stain. The stained tissue segment was captured with a microscope. […] The areas of only collagen fiber sites in the tissue segment images were measured (removing areas of the epidermal layer, mast cells, and muscle cells) and compared the mast cell count per unit area to the degree of degranulation.

Compound	atopic dermatitis score (mean change) relative to solvent administered group (DW) [1]	further results
CCCCCCCCCCCCCCCC[N+](C)(C)C.[Br-] [Cetyl-TAB, Cetyltrimethylammonium bromide]	exacerbating action	–
NCCCCCCN [HMDA, Hexamethylenediamine]	An effect of suppression was not found	–
CCCCCC[N+](C)(C)C.[Br-] [Hexyl-TAB, Hexyltrimethylammonium Bromide]	effect of suppressing atopic dermatitis, although slightly weaker than hexamethonium bromide; also recorded: effect of suppressing atopic dermatitis	–
C[N+](C)(C)CCOC(=O)CCC(=O)OCC[N+](C)(C)C [Suxamethonium bromide, suxamethonium chloride]	reduce atopic dermatitis scores	–
C[N+](C)(C)CCCCCCCCCC[N+](C)(C)C [decamethonium bromide, Decamethonium Bromide]	reduce atopic dermatitis scores	atopic dermatitis score (mean change) relative to solvent administered group (DW) ([1]; listed as Decamethonium bromide): action to exacerbate atopic dermatitis was confirmed; toxicity [2]: strong toxicity
C[N+](C)(C)CCCCCC[N+](C)(C)C.[Br-].[Br-] [hexamethonium bromide, Hexamethonium Bromide]	elevation in atopic dermatitis scores was suppressed	therapeutic effect (AD scores and ΔAD scores) [3]: relatively high therapeutic effect; therapeutic effect (AD scores and ΔAD scores) [4]: relative high therapeutic effect; degree of protrusion of skin pores (replica images) [5]: degree of protrusion of skin pores has subsided to be less goose bump-like; improvement in dermatitis scores (mean change from day 0) [6]: Improvement in the dermatitis scores was observed
COc1cc2c3cc1Oc1cc(ccc1O)C[C@@H]1c4c(cc(OC)c(O)c4Oc4ccc(cc4)C[C@@H]3N(C)CC2)CC[N+]1(C)C [tubocurarine, Tubocurarine chloride pentahydrate]	–	ratio of degranulated mast cells to all mast cells (mast cells): about 33%
Tetramethylammonium Bromide [TAB]	effect of suppressing atopic dermatitis	–
